Measured values reported in patent US11576933B2, “Compositions and methods for an improved antitumor immune response” (EFFECTOR THERAPEUTICS, INC., priority 2017, dated 2023).

Key:
[1] = test system: fibroblasts (Lonza #CC-2512); experiment: α-SMA protein level by western blot in fibroblasts co-treated with TGFβ (fibroblast-to-myofibroblast transformation); type: cell-based; conditions: 24 hours co-incubation with 10 ng/ml TGFβ, inhibitor 0, 1.5, 4, 13 or 40 nM, FIG. 1
Experimental: (§1) Myofibroblasts are believed to be associated with tumor growth, vascularization, and metastasis (see, e.g., Webber et al., Cancer Res. 70:9621, 2010). The ability of Cmp1 or Cmp2 to inhibit the TGFβ-mediated fibroblast-to-myofibroblast transformation and components of the extracellular matrix was evaluated in fibroblasts.
(§2) Briefly, fibroblasts (Lonza #CC-2512; cell passage numbers 2 through 5 were used for all experiments) were seeded (Day 0) and cultured in Dulbecco's modified Eagle medium (DMEM) supplemented with 10% fetal bovine serum (FBS), penicillin, streptomycin and glutamax (Invitrogen) at 37° C. in a humidified incubator with 5% CO2 overnight. On Day 1, cells were washed with phosphate buffered saline (PBS), and then incubated for 48 hours in fresh serum-free DMEM supplemented with penicillin, streptomycin, and glutamax. […]
(§3) After a 24-hour incubation period, the effects of eIF4A inhibition on fibroblast transformation and production of extracellular matrix components were evaluated. Smooth muscle actin (α-SMA) protein levels were analyzed by western blot. Procollagen type 1 C-Peptide (PIPC) levels were analyzed by collecting culture media, centrifuging to pellet cellular debris, and quantifying using the (PIP) EIA kit (Clontech, Cat. No. MK101) according to the manufacturer's instructions.

[2] = test system: fibroblasts (Lonza #CC-2512); experiment: Procollagen type 1 C-Peptide (PIPC) secretion from fibroblasts co-treated with TGFβ, (PIP) EIA kit; type: cell-based; conditions: 24 hours co-incubation with 10 ng/ml TGFβ; inhibitor 0, 1.5, 4, 13 or 40 nM; FIGS. 2A and 2B
Experimental: as §1, §2, §3

[3] = test system: myofibroblasts; experiment: TGFβ secretion from pre-formed myofibroblasts, Human TGF-B1 ELISA kit; type: cell-based; conditions: myofibroblasts pre-formed with 10 ng/ml TGFβ 24 hours, washed; inhibitor 0-100 nM for 48 hours; FIG. 3A
Experimental: (§4) Briefly, fibroblasts (Lonza #CC-2512; cell passage numbers 2 through 5 were used for all experiments) were seeded (Day 0) and cultured in Dulbecco's modified Eagle medium (DMEM) supplemented with 10% fetal bovine serum (FBS), penicillin, streptomycin and glutamax (Invitrogen) at 37° C. in a humidified incubator with 5% CO2 overnight. On Day 1, cells were washed with phosphate buffered saline (PBS), and then incubated for 72 hours in fresh serum-free DMEM supplemented with penicillin, streptomycin, and glutamax. On Day 4, cells were washed, followed by addition of fresh serum-free DMEM containing 10 ng/ml TGFβ, and cultured for 24 hours. On Day 5, cells were washed, followed by addition of fresh serum-free DMEM containing eIF4A inhibitor Cmp1 (0, 1.2, 3.7, 11.1, 33.3 or 100 nM), and cultured. Controls included untreated cells. At 48 hours post-addition of eIF4A inhibitor, 300 ul of culture media was harvested, centrifuged to pellet cellular debris, and frozen at −80° C. TGFβ1 in the culture medium was quantified using the Human TGF-B1 ELISA kit (R&D System DY240-05) according to the manufacturer's instructions. Procollagen type 1 C-Peptide (PIPC) levels were analyzed using the (PIP) EIA kit (Clontech, Cat. No. MK101) according to the manufacturer's instructions.

[4] = test system: myofibroblasts; experiment: Procollagen type 1 C-Peptide (PIPC) secretion from pre-formed myofibroblasts, (PIP) EIA kit; type: cell-based; conditions: myofibroblasts pre-formed with 10 ng/ml TGFβ 24 hours, washed; inhibitor 0-100 nM for 48 hours; FIG. 3B
Experimental: as §4

[5] = test system: KPC-3 (mouse pancreatic carcinoma) tumor; experiment: Tumor infiltrating lymphocytes (CD3+/CD8+ IHC) in allograft KPC-3 tumor model; type: in vivo; conditions: parenterally, C57BL/6J mice, versus vehicle; for CD3+ T cells in the KPC-3 tumor samples: FIG. 4B
Experimental: To evaluate the effect of an eIF4A inhibitor on tumor infiltrating lymphocytes, an allograft tumor model was used. Briefly, KPC-3 (mouse pancreatic carcinoma) cells grown in DMEM supplemented with 10% FBS were harvested during exponential growth and counted for tumor inoculation in immune competent C57BL/6J mice. Each mouse was inoculated subcutaneously with 0.1×10^6 KPC-3 tumor cells in the right flank region in 0.1 mL volume comprising a 1:1 ratio (volume to volume) of cells in growth media and Matrigel® matrix (BD Biosciences, San Jose Calif.). Tumors were grown to 100-200 mm^3 prior to study initiation. Before beginning treatment, all animals were weighed and tumor volumes measured using a caliper. Since the tumor volume can affect the effectiveness of any given treatment, mice were randomly assigned into vehicle and test article treatment groups after tumors had reached a similar size. Each study group contained 8 mice, with each group receiving either vehicle (D5W) or Cmp1 administered parenterally on two dosing schedules (0.33 mg/kg Q2D and 1 mg/kg Q1W for 17 days). Following treatment, tumor biopsies were collected for four representative animals from each treatment group, formalin-fixed, and paraffin-embedded. Tumor samples were sectioned and stained with anti-CD3 and anti-CD8 antibodies or isotype control. A hematoxylin nuclear counterstain was also applied. Image analysis and quantification were conducted using ImageDx™. Increased CD3^+ and CD8^+ T cell staining within the tumor sample for eIF4A inhibitor treatment relative to vehicle indicates an increase in infiltrating lymphocytes into the tumor.

Question: What does the source list for `COc1cc2c(c(OC)n1)[C@]1(O)[C@H](O)[C@H](CN(C)C)[C@@H](c3ccccc3)[C@]1(c1ccc(C#N)cc1)O2` (racemic) [Cmp1]?
Answer: α-SMA protein level (ratio of α-SMA to β-actin) [1]: dose-dependent reduction; procollagen type I secretion (PIPC) [2]: blocked the increase; levels of secreted TGFβ [3]: reduced the levels of secreted TGFβ in a dose-dependent manner; procollagen type I levels [4]: dose-dependent decrease; CD3+ T cells in the KPC-3 tumor samples ([5]; 0.3 mg/kg Q2D for 17 days): significant increase; CD3+ T cells in the KPC-3 tumor samples ([5]; 1 mg/kg Q1W for 17 days): significant increase; CD8+ T cells in the KPC-3 tumor samples ([5]; 1 mg/kg Q1W for 17 days, FIG. 4C): significant increase

Question: Which results are given for `COc1nc(Cl)cc2c1[C@]1(O)[C@H](O)[C@H](CN(C)C)[C@@H](c3ccccc3)[C@]1(c1ccc(C#N)cc1)O2` [Cmp2, 4-((5aR,6S,7S,8R,8aS)-3-chloro-7-((dimethylamino)methyl)-8,8a-dihydroxy-1-methoxy-6-phenyl-6,7,8,8a-tetrahydro-5aH-cyclopenta[4,5]furo[3,2-c]pyridin-5a-yl)benzonitrile]?
Answer: α-SMA protein level (ratio of α-SMA to β-actin) [1]: dose-dependent reduction; procollagen type I secretion (PIPC) [2]: blocked the increase
